Laboratory results taken from ChEMBL document CHEMBL1201862, “PubChem BioAssay data set” (2004).
Active and inactive are the calls of the source.

What was measured:
[1] = biological target: T1, Long-chain-fatty-acid--AMP ligase FadD28 (Mycobacterium tuberculosis, UniProt P9WQ59); assay: Fluorescence polarization aasay to screen for inhibitors that compete for the binding of FadD28 to a bisubstrate Measured in Biochemical System Using Plate Reader - 2147-01_Inhibitor_Dose_CherryPick_Activity.; format: functional, Mycobacterium tuberculosis H37Rv
T1 sequence (P9WQ59 whole entry): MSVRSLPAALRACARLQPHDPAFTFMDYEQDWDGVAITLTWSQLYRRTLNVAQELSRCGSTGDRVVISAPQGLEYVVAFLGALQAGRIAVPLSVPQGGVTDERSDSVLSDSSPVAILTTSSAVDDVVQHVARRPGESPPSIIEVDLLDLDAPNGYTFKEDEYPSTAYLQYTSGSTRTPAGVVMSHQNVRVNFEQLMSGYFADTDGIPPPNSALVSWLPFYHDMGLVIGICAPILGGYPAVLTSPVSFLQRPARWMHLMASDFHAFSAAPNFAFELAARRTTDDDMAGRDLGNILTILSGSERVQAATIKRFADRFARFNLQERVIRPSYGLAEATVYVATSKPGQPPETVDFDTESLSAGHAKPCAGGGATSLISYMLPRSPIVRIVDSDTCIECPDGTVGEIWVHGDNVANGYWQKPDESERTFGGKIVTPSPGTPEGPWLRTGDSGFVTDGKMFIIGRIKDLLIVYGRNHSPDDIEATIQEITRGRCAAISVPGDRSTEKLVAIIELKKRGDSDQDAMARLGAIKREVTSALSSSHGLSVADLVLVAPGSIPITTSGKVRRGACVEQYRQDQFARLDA

[2] = biological target: Eukaryotic translation initiation factor 4E (Mus musculus, UniProt P63073); assay: eIF4E–eIF4G protein interaction inhibitors, dose response, biochemical, TR-FRET (AID 855); format: functional;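 also: potency for disrupting eIF4E binding to eIF4GI seen as loss of FRET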
[3] = biological target: T2, Histone-lysine N-methyltransferase NSD2 (Homo sapiens, UniProt O96028); format: biochemical
T2 sequence (O96028 whole entry): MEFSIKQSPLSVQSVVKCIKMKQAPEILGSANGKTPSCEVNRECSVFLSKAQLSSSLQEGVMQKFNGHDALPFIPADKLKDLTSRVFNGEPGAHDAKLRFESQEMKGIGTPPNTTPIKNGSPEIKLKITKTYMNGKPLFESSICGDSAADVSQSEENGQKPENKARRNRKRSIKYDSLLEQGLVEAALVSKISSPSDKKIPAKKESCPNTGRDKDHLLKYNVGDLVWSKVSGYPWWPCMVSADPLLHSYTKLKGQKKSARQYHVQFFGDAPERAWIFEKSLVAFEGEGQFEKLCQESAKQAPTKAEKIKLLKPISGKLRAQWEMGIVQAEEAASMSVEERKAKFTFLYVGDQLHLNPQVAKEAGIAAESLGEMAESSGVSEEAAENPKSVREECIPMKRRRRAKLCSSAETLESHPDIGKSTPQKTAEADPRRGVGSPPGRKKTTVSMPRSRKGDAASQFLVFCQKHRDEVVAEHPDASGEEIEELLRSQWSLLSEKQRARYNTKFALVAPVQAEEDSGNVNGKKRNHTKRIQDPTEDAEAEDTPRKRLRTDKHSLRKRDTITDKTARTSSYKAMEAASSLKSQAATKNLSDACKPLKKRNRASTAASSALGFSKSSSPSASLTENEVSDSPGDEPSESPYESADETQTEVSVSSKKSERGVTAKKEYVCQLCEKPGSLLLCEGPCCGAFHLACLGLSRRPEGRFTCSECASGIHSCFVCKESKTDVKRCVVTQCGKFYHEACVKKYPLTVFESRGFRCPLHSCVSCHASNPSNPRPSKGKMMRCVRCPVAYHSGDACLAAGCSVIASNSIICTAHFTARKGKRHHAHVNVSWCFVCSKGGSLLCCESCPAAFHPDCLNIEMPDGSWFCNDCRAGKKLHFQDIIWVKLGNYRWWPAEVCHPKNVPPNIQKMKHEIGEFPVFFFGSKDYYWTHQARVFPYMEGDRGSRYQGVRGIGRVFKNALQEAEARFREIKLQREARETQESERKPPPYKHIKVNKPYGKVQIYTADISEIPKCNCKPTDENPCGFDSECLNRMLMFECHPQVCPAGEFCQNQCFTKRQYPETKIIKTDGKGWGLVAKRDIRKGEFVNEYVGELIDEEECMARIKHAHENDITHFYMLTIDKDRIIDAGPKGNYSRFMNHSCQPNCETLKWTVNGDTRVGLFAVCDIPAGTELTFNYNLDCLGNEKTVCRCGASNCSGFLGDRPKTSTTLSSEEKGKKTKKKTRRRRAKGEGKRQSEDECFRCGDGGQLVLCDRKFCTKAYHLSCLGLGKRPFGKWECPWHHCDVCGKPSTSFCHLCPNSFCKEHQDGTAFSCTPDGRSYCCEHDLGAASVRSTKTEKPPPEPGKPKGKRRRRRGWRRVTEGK

[4] = biological target: T3, Carboxy-terminal domain RNA polymerase II polypeptide A small phosphatase 1 (Homo sapiens, UniProt Q9GZU7); assay: inhibitors of CTDSP1, concentration-response testing, biochemical assay, absorbance-based, actives from ultra-high-throughput screening (AID 540297); format: functional
T3 sequence (Q9GZU7 whole entry): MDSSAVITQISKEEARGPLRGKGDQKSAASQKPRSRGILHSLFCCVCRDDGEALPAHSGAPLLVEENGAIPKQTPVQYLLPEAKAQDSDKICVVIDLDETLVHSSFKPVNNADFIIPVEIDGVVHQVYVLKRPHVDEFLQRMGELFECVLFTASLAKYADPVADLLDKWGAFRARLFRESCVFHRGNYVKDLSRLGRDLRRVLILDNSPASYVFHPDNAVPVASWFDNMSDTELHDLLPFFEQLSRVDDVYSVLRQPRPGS

[5] = ZM109 Env clade C HIV-1 fusion inhibitors, dose response, HeLa effector, CEM target cells, luciferase, cherry-pick (AID 652058); format: functional, cell-based
[6] = inhibitors of HIV Env-driven cell fusion, dose response, cherry-pick (AID 652057); format: functional, cell-based
[7] = off-target signal loss in HeLa-CEM21 co-culture – HeLa F-luc CTL cells, cherry-picked, counter-screen for HIV-1 Env fusion inhibitor project, dose response (AID 652040); format: functional, cell-based;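 also: potency for signal decrease marking cytotoxic or nonspecific inhibition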
[8] = inhibitors of clade B AD8 Env fusion, dose response, cell-based, cherry-pick (AID 652062); format: functional;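 also: luciferase signal from cell-cell fusion driven by HIV-1 clade B AD8 Env; potency is for inhibitors of fusion seen as a drop in luminescence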
Major prion protein = Major prion protein (Homo sapiens, UniProt P04156); format: functional, cell-based
[9] = biological target: NAD-dependent protein deacylase sirtuin-5, mitochondrial (Homo sapiens, UniProt Q9NXA8); assay: SIRT5 desuccinylase inhibitors, dose response, biochemical, fluorescence imaging, cherry-pick, set 5 (AID 720591);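 also: desuccinylation of succinyl peptide AMC substrate read as fluorescence after trypsin release; potency of inhibitors that lower fluorescence and may act on trypsin instead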
[10] = biological target: T4, Neuropeptide Y receptor type 1 (Homo sapiens, UniProt P25929); assay: Fluorescence-based counterscreen for agonists of NPY-Y2: cell-based high-throughput dose response assay for agonists of NPY-Y1.; format: functional
T4 sequence (P25929 whole entry): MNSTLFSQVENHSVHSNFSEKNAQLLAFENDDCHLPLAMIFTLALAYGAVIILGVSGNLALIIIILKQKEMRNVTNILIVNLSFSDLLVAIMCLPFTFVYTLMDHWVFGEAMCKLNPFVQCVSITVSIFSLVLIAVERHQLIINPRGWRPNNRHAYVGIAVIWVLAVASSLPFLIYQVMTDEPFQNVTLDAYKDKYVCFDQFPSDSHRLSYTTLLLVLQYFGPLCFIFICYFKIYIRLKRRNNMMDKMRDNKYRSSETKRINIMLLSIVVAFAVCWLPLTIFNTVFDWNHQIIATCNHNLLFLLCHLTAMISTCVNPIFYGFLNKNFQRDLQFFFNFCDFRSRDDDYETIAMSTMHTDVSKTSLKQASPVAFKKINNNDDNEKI

HEK293 = assay: Fluorescence-based counterscreen for potentiators or agonists of NPY-Y2: cell-based high-throughput dose response assay to identify inhibitors of cyclic nucleotide gated ion channel (CNGC) activity. In this assay, the parental HEK293 cell line transfected with a cyclic-nucleotide gated ion channel (CNGC)-based cAMP sensor is used to measure inhibition of isoproterenol-induced CNGC activity by test compound.; format: functional; conditions: Homo sapiens;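 also: stimulus is 1 µM isoproterenol at EC100 plus PDE inhibitor Ro 20-1724 at 25 µM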
[11] = biological target: T5, Neuropeptide Y receptor type 2 (Homo sapiens, UniProt P49146); assay: Fluorescence-based cell-based high-throughput dose response assay for agonists of NPY-Y2. [Related pubchem assays: 1703 (Screening assay (CNGC inhibitors).), 1359 (Screening assay (NPY-Y2 potentiators or agonists).), 1304 (Screening assay (NPY-Y1 potentiators or agonists).), 1710 (Screening assay (NPY-Y2 agonists).), 1791 (Summary AID.)]; format: functional
T5 sequence (P49146 whole entry): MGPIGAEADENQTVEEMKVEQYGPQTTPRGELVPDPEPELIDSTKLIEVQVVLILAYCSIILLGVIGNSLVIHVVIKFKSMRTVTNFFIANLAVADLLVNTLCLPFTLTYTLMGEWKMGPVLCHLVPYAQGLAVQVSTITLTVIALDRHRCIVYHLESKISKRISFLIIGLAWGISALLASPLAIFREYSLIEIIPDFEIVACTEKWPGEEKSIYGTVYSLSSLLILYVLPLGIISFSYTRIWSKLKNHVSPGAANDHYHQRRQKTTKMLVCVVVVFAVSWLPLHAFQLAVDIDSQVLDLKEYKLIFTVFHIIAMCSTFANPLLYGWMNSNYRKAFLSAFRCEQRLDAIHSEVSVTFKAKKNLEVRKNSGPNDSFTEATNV

Kallikrein-7 = Kallikrein-7 (Homo sapiens, UniProt P49862); assay: Fluorescence Intensity-based biochemical primary high throughput dose response assay to identify activators of kallikrein-7 (K7) zymogen.

Cc1ccc(NC(=O)CN2C(=O)N/C(=C/c3cc(C)n(-c4cccc(C(=O)O)c4)c3C)C2=O)cc1
AC50 [1]: 27.5 µM (active)
IC50 [2]: 50 µM (inactive)
AC50 [3]: > 20 µM (inactive)
IC50 [4]: 7.94 µM (active)

Cc1ccc(C(=O)OCC(=O)Nc2ccc3c(c2)OCO3)cc1S(=O)(=O)N1CCOCC1
AC50 [1]: > 100 µM (inactive)

CCN(CC)C(=O)c1ncn2c1C(=O)NC[C@@H]2C
AC50 [5]: 9.08 µM (active)
AC50 [6]: 8.99 µM (active)
AC50 [7]: 24.7 µM (active)

COc1cc2oc(=O)cc(-c3ccc(-c4ccc(CO)cc4)cc3)c2c(OC)c1OC
AC50 [5]: 5.08 µM (active)
AC50 [6]: 12.1 µM (active)
AC50 [7]: 8.61 µM (active)
AC50 [8]: 13.2 µM (active)

CN(C(=O)CSc1cc(C(=O)c2nccn2C)c2ccccc2n1)c1ccccc1
IC50 (cells): > 138 µM (inactive)
IC50 (Major prion protein): 11.4 µM (inactive)

O=C(O)CCNc1nc(C(F)(F)F)nc2ccccc12
AC50 [9]: 1.64 µM (active)

Cc1nc(SCCC(=O)O)c2ccccc2n1
IC50 (cells): > 138 µM (inactive)
IC50 (Major prion protein): 0.915 µM (active)

CCOC(=O)c1ccc(-n2c(=S)sc3c(O)nc(C)nc32)cc1
EC50 [10]: > 35.4 µM (not active)
EC50 (HEK293): > 35.4 µM (not active)
EC50 [11]: > 35.4 µM (not active)

Cc1oc2c(C)c3oc(=O)c(CCC(=O)NCCCCCC(=O)O)c(C)c3cc2c1C
EC50 (Kallikrein-7): > 69.5 µM (inactive)
